In patent publication US20040213837A1, “Oil-core compositions for the sustained release of hydrophobic drugs” (priority 2002, published 2004):
Converted amounts (≈) assume the structure as drawn. Counter-ions that a name gives are not always drawn.

Assays:
[1] = In vivo concentration-time course of paclitaxel after intraperitoneal injection; conditions: rat, 16 mg/kg intraperitoneal, OCP or conventional formulation, HPLC
Protocol: “Conventional” formulations of paclitaxel were prepared by adding 6 mg paclitaxel to 1 mL of a mixture (1:1, v/v) of anhydrous alcohol and Cremophor® EL (Sigma Chemical Company, St. Louis, Mo.). […] At the indicated time points, animals were euthanized and blood, peritoneal fluid, liver, and spleen samples were collected, processed and quickly frozen.
Paclitaxel concentrations in plasma, peritoneal fluid, and homogenized tissues were determined by HPLC after liquid-liquid extraction of the samples with diethyl ether followed by solid-phase extraction (Bond Elut; Varian, Harbor City, Calif.). The samples were then suspended in 45:15:40 acetonitrile:methanol:water, and 50 μL was injected onto a Waters Symmetry C18 column (Waters, Taunton, Mass.) with a Hewlett-Packard Model 1100 solvent delivery system (Hewlett-Packard, Wilmington, Del.). The mobile phase was a mixture of acetonitrile, methanol, and 0.2 M ammonium acetate at pH 5 (45:15:40) with a rate of 1 mL/min; detection was at a wavelength of 230 nm. Apparent terminal half-lives (T1/2beta) were estimated from the terminal log-linear decline of the concentration-time profiles.

microtubule bundling = conditions: Rowinsky et al., Cancer Research 48: 4093-4100, 1988; cited from earlier work
[2] = Solubility of bupivacaine free-base in triolein or tricaprylin; type: physicochemical
Protocol: To confirm that the formation of bupivacaine crystals was related to differing solubility of the drug in the oils used, a solubility experiment was performed. Varying amounts of bupivacaine free-base were added to 1.0 g aliquots of either triolein or tricaprylin in small vials with Teflon-lined screw caps. These vials were heated to ˜70° C., shaken vigorously, cooled to room temperature, then 1.0 mL of 10 mM lysine/5% sorbitol was added to each vial. The vials were put in a 4° C. cold room for a month. […] This vial was the only one in which a precipitate disappeared upon warming to room temperature.

response to pin pricks = assay: Guinea pig intracutaneous injection, response to pin pricks; type: in vivo, guinea pigs; conditions: 1.0 mL intracutaneous, equivalent to 1% bupivacaine HCl monohydrate
Protocol: This is used in an assay of anesthetic effect. Previously shaved guinea pigs (4-5 per group) were marked with a stencil in the form of a circular array, with 17 tick marks at various radii and directions from the center of the array. Animals anesthetized with Halothane were injected intracutaneously with 1.0 mL of either the tricaprylin-core bupivacaine suspension or a solution of 1% bupivacaine HCl monohydrate in 5% sorbitol. The response to pin pricks was tested at various post-injection intervals (30 min, 3, 6, 9, 12, 18, 24, 30 and 36 hours) and the results summarized in FIG. 3. A vocalization or muscle twitch was considered a positive response. The guinea pigs' response to the bupivacaine solution decayed to half of its maximum at about 3.6 hours after injection. An equivalent (on a molar basis) dose of bupivacaine free base tricaprylin-core suspension took about 8½ hours to decay to the same number of negative responses, and took about 11 hours to decay to half of the maximal response for this formulation.

[3] = 4° C. for a month, with 10 mM lysine/5% sorbitol

SMILES: CC(=O)O[C@H]1C(=O)[C@@]2(C)[C@H]([C@H](OC(=O)c3ccccc3)[C@]3(O)C[C@H](OC(=O)[C@H](O)[C@@H](NC(=O)c4ccccc4)c4ccccc4)C(C)=C1C3(C)C)[C@]1(OC(C)=O)CO[C@@H]1C[C@@H]2O [Paclitaxel, paclitaxel]
- Paclitaxel levels in plasma [1]: below the limit of detection
- minimum inhibitory concentration required to induce microtubule bundling and other cytotoxic effects in vitro (microtubule bundling): 0.085 µg/mL (≈ 0.0995 µM)

SMILES: CCCCN1CCCCC1C(=O)Nc1c(C)cccc1C (centres unmarked) [bupivacaine free-base, bupivacaine]
- relative solubility in tricaprylin and triolein [2]: more soluble in tricaprylin than in triolein
- bupivacaine content at which no precipitates were seen, in tricaprylin [2, 3]: ≤ 40 mg per g tricaprylin
- bupivacaine content at which no precipitates were seen, in triolein [2, 3]: ≤ 20 mg per g triolein
- bupivacaine content at which precipitates or large masses were seen, in tricaprylin [2, 3]: ≥ 50 mg per g tricaprylin
- bupivacaine content at which precipitates or large masses were seen, in triolein [2, 3]: ≥ 30 mg per g triolein

SMILES: CCCCN1CCCCC1C(=O)Nc1c(C)cccc1C (centres unmarked) [bupivacaine solution, bupivacaine HCl monohydrate]
- time for response to decay to half of its maximum (response to pin pricks): about 3.6 hours
